Several values for one entry are separate records, joined by “and”; a condition that tells them apart may be missing. Equal entries are not always repeated.
Details: 343.16 K, Liquid, Vibrating tube method

CCCCCC(=O)OCC(COC(=O)CCCCC)(COC(=O)CCCCC)COC(=O)CCCCC [pentaerythritol tetrahexanoate]
Details	mass density
12946 kPa	966.8 kg/m3
12969 kPa	966.9 kg/m3
13446 kPa	967.2 kg/m3
13485 kPa	967.3 kg/m3
13510 kPa	967.1 kg/m3
13521 kPa	967.2 kg/m3
13524 kPa	967.2 kg/m3
13527 kPa	967.3 kg/m3
13530 kPa	967.2 kg/m3
13534 kPa	967.1 kg/m3
13539 kPa	967.2 kg/m3
13542 kPa	967.2 kg/m3
13545 kPa	967.2 kg/m3
13548 kPa	967.2 kg/m3
13550 kPa	967.1 kg/m3
13554 kPa	967.3 kg/m3
13556 kPa	967.3 kg/m3
13562 kPa	967.2 kg/m3
13571 kPa	967.4 kg/m3
13578 kPa	967.2 kg/m3
13593 kPa	967.3 kg/m3
13604 kPa	967.2 kg/m3 and 967.4 kg/m3
13605 kPa	967.3 kg/m3 and 967.2 kg/m3
13606 kPa	967.2 kg/m3 and 967.3 kg/m3
13607 kPa	967.2 kg/m3
13608 kPa	967.2 kg/m3 and 967.3 kg/m3 and 967 kg/m3
13609 kPa	967.3 kg/m3
13610 kPa	967.3 kg/m3
13612 kPa	967.2 kg/m3
13620 kPa	967.2 kg/m3
13632 kPa	967.3 kg/m3
13650 kPa	967.3 kg/m3
13671 kPa	967.3 kg/m3
13695 kPa	967.3 kg/m3
13719 kPa	967.4 kg/m3
13749 kPa	967.3 kg/m3
13774 kPa	967.4 kg/m3
13798 kPa	967.5 kg/m3
13828 kPa	967.5 kg/m3
13853 kPa	967.4 kg/m3
13878 kPa	967.4 kg/m3
13960 kPa	967.5 kg/m3
14011 kPa	967.6 kg/m3
14041 kPa	967.5 kg/m3
14066 kPa	967.5 kg/m3
14096 kPa	967.6 kg/m3
14122 kPa	967.7 kg/m3
14146 kPa	967.7 kg/m3
14176 kPa	967.7 kg/m3
14201 kPa	967.5 kg/m3
14227 kPa	967.6 kg/m3
14310 kPa	967.7 kg/m3
14444 kPa	967.9 kg/m3
14501 kPa	967.9 kg/m3
14527 kPa	967.9 kg/m3
14558 kPa	967.9 kg/m3
14584 kPa	967.8 kg/m3
14611 kPa	967.9 kg/m3
14643 kPa	967.9 kg/m3
14670 kPa	968 kg/m3
14696 kPa	968 kg/m3
14723 kPa	967.9 kg/m3
14870 kPa	968.1 kg/m3
14897 kPa	968.1 kg/m3
14930 kPa	968.2 kg/m3
14958 kPa	968.2 kg/m3
14985 kPa	968.3 kg/m3
15019 kPa	968.2 kg/m3
15047 kPa	968.3 kg/m3
15080 kPa	968.3 kg/m3
15108 kPa	968.2 kg/m3
15136 kPa	968.3 kg/m3
15164 kPa	968.3 kg/m3
15198 kPa	968.4 kg/m3
15226 kPa	968.5 kg/m3
15255 kPa	968.4 kg/m3
15642 kPa	968.6 kg/m3
15668 kPa	968.6 kg/m3
15694 kPa	968.7 kg/m3
15725 kPa	968.7 kg/m3
15751 kPa	968.8 kg/m3
15777 kPa	968.7 kg/m3
15808 kPa	968.8 kg/m3
15834 kPa	968.8 kg/m3
15864 kPa	968.9 kg/m3
15891 kPa	968.9 kg/m3
15916 kPa	968.8 kg/m3
15943 kPa	969 kg/m3
15974 kPa	968.8 kg/m3
16000 kPa	969 kg/m3
16057 kPa	969 kg/m3
16359 kPa	969 kg/m3
16386 kPa	969.2 kg/m3
16412 kPa	969.2 kg/m3
16439 kPa	969.4 kg/m3
16472 kPa	969.2 kg/m3
16494 kPa	969.2 kg/m3
16872 kPa	969.5 kg/m3
16899 kPa	969.5 kg/m3
16931 kPa	969.5 kg/m3
16957 kPa	969.5 kg/m3
16982 kPa	969.7 kg/m3
17013 kPa	969.6 kg/m3
17038 kPa	969.6 kg/m3
17064 kPa	969.6 kg/m3
17094 kPa	969.8 kg/m3
17120 kPa	969.7 kg/m3
17146 kPa	969.7 kg/m3
17177 kPa	969.8 kg/m3
17203 kPa	969.7 kg/m3
17229 kPa	969.8 kg/m3
17260 kPa	969.7 kg/m3
17286 kPa	969.9 kg/m3
17312 kPa	969.7 kg/m3
17344 kPa	969.7 kg/m3
17371 kPa	969.9 kg/m3
17398 kPa	969.9 kg/m3
17430 kPa	969.9 kg/m3
19111 kPa	971.1 kg/m3
19142 kPa	970.9 kg/m3
19168 kPa	971.1 kg/m3
19194 kPa	971.2 kg/m3
19226 kPa	971.2 kg/m3
19252 kPa	971.1 kg/m3
19282 kPa	971.1 kg/m3
19307 kPa	971.2 kg/m3
19331 kPa	971.4 kg/m3
19353 kPa	971.2 kg/m3
19375 kPa	971.2 kg/m3
19400 kPa	971.3 kg/m3
19422 kPa	971.2 kg/m3
19443 kPa	971.3 kg/m3
19469 kPa	971.4 kg/m3
19491 kPa	971.3 kg/m3
19512 kPa	971.3 kg/m3
19539 kPa	971.3 kg/m3
19561 kPa	971.4 kg/m3
19583 kPa	971.4 kg/m3
19609 kPa	971.4 kg/m3
19868 kPa	971.6 kg/m3
19886 kPa	971.6 kg/m3
19908 kPa	971.6 kg/m3
19925 kPa	971.7 kg/m3
19941 kPa	971.7 kg/m3
19959 kPa	971.7 kg/m3
19975 kPa	971.6 kg/m3
19990 kPa	971.8 kg/m3
20010 kPa	971.8 kg/m3
20026 kPa	971.6 kg/m3
20042 kPa	971.7 kg/m3
20054 kPa	971.7 kg/m3
20065 kPa	971.8 kg/m3
20075 kPa	971.6 kg/m3
20086 kPa	971.7 kg/m3
20099 kPa	971.8 kg/m3
20105 kPa	971.8 kg/m3
20106 kPa	971.8 kg/m3
20108 kPa	971.7 kg/m3
20111 kPa	971.8 kg/m3
20114 kPa	971.8 kg/m3
20116 kPa	971.8 kg/m3
20117 kPa	971.8 kg/m3
20118 kPa	971.7 kg/m3
20119 kPa	971.7 kg/m3
20121 kPa	971.6 kg/m3
20122 kPa	971.7 kg/m3
20124 kPa	971.6 kg/m3 and 971.8 kg/m3
20140 kPa	971.8 kg/m3
20174 kPa	971.9 kg/m3
20204 kPa	971.8 kg/m3
20239 kPa	971.8 kg/m3
20269 kPa	971.9 kg/m3
20298 kPa	971.8 kg/m3
20328 kPa	971.8 kg/m3
20365 kPa	971.9 kg/m3
20395 kPa	971.8 kg/m3
20426 kPa	972 kg/m3
20462 kPa	971.8 kg/m3
20493 kPa	972 kg/m3
20525 kPa	972 kg/m3
20558 kPa	971.9 kg/m3
20589 kPa	972 kg/m3
20626 kPa	972.1 kg/m3
20657 kPa	972.3 kg/m3
20689 kPa	972.1 kg/m3
20727 kPa	972.1 kg/m3
20759 kPa	972.2 kg/m3
20790 kPa	972.2 kg/m3
20828 kPa	972.3 kg/m3
20860 kPa	972.2 kg/m3
20892 kPa	972.2 kg/m3
20930 kPa	972.4 kg/m3
20963 kPa	972.3 kg/m3
20998 kPa	972.3 kg/m3
21030 kPa	972.4 kg/m3
21068 kPa	972.5 kg/m3
21101 kPa	972.4 kg/m3
21134 kPa	972.4 kg/m3
21166 kPa	972.5 kg/m3
21238 kPa	972.5 kg/m3
21271 kPa	972.5 kg/m3
21309 kPa	972.6 kg/m3
21339 kPa	972.6 kg/m3
21372 kPa	972.6 kg/m3
21399 kPa	972.7 kg/m3
21426 kPa	972.6 kg/m3
21732 kPa	972.7 kg/m3
21757 kPa	972.8 kg/m3
21782 kPa	972.8 kg/m3
21811 kPa	972.9 kg/m3
22020 kPa	972.9 kg/m3
22050 kPa	973.1 kg/m3
22076 kPa	973.1 kg/m3
22102 kPa	973 kg/m3
22132 kPa	973.1 kg/m3
22157 kPa	973 kg/m3
22183 kPa	973.2 kg/m3
22214 kPa	973.1 kg/m3
22240 kPa	973.1 kg/m3
22266 kPa	973.1 kg/m3
22296 kPa	973.1 kg/m3
22322 kPa	973.2 kg/m3
22348 kPa	973.2 kg/m3
22379 kPa	973.3 kg/m3
22405 kPa	973.1 kg/m3
22432 kPa	973.3 kg/m3
22458 kPa	973.2 kg/m3
22489 kPa	973.3 kg/m3
22515 kPa	973.3 kg/m3
22547 kPa	973.4 kg/m3
22573 kPa	973.4 kg/m3
23002 kPa	973.6 kg/m3
23035 kPa	973.7 kg/m3
23063 kPa	973.7 kg/m3
23092 kPa	973.8 kg/m3
23125 kPa	973.8 kg/m3
23154 kPa	973.8 kg/m3
23183 kPa	973.8 kg/m3
23212 kPa	973.9 kg/m3
23246 kPa	973.9 kg/m3
23274 kPa	973.9 kg/m3
23301 kPa	974 kg/m3
23332 kPa	973.8 kg/m3
23381 kPa	974 kg/m3
23410 kPa	974 kg/m3
23435 kPa	974 kg/m3
23459 kPa	974 kg/m3
23484 kPa	974.1 kg/m3
23514 kPa	973.9 kg/m3
23540 kPa	974.1 kg/m3
23566 kPa	974 kg/m3
23591 kPa	974.2 kg/m3
23616 kPa	974 kg/m3
23646 kPa	974.1 kg/m3
23671 kPa	974.1 kg/m3
23696 kPa	974.1 kg/m3
23727 kPa	974.1 kg/m3
23752 kPa	974 kg/m3
23782 kPa	974.2 kg/m3
23914 kPa	974.3 kg/m3
23941 kPa	974.3 kg/m3
23971 kPa	974.5 kg/m3
23997 kPa	974.2 kg/m3
24028 kPa	974.3 kg/m3
24054 kPa	974.2 kg/m3
24080 kPa	974.3 kg/m3
24106 kPa	974.3 kg/m3
24137 kPa	974.4 kg/m3
24163 kPa	974.4 kg/m3
24190 kPa	974.4 kg/m3
24221 kPa	974.4 kg/m3
24248 kPa	974.4 kg/m3
24279 kPa	974.4 kg/m3
24306 kPa	974.4 kg/m3
26698 kPa	976.1 kg/m3
26725 kPa	976 kg/m3
26758 kPa	976.2 kg/m3
26785 kPa	976.3 kg/m3
26812 kPa	976.3 kg/m3
26845 kPa	976.2 kg/m3
27601 kPa	976.6 kg/m3
27630 kPa	976.8 kg/m3
27660 kPa	976.8 kg/m3
27697 kPa	976.8 kg/m3
27728 kPa	976.7 kg/m3
27758 kPa	976.8 kg/m3
27787 kPa	976.8 kg/m3
27824 kPa	976.7 kg/m3
27854 kPa	976.9 kg/m3

From the NIST ThermoML archive (doi:10.1021/je060271a)
